Assay results taken from patent US12377035B2, “Peptides for inhibiting cholinergic calcitonin gene-related peptide (CGRP) and acetylcholine (ACH) release or inhibiting sensitization-mediated by TRPV1-mediated excitability in sensory neurons and methods of use thereof” (AZIENDE CHIMICHE RIUNITE ANGELINI FRANCESCO—A.C.R.A.F. …, priority 2018, dated 2025).
Read-outs that look alike come from different tables or passages of the source. Residues, ends and D or L forms follow the SMILES beside them. *: point of attachment. Palmitoyl = CCCCCCCCCCCCCCCC(=O)*

Tests used:
[1] = test system: acetylcholine release, human neuroblastoma cell line differentiated to cholinergic neuronal phenotype; assay: Inhibition of KCl-induced acetylcholine release in a neuroblastoma cell line (Amplex Red); assay type: cell-based; conditions: 50 mM KCl
Method: To determine the compound of the invention effects on acetylcholine release, a human neuroblastoma cell line (50.000 cells/well) was used. Cells were differentiated to cholinergic neuronal phenotype for 4 days. Then, cells were pre-incubated for 60 minutes with the compounds (between 0.1 and 100 μM) as acetyl- or palmitoyl-form and conjugated with trifluoroacetate (TFA) or acetate salt. Afterwards, acetylcholine release was induced by membrane depolarization evoked by 15 minutes incubation with 50 mM KCl. Acetylcholine level in supernatants was quantified by using Amplex® Red Acetylcholine Assay Kit (Thermofisher) following manufacturer's instructions. […] Fluorescence (Ex 530 nm/Em 590 nm) was measured in FluorStar equipment. Acetylcholine content was normalized to the total protein content using BCA assay (Pierce) following manufacturer's instructions. Fluorescence measurements were normalized to the maximum signal detected with KCl stimulation in vehicle treated cells. Vesicle exocytosis disruption by the compounds of the invention lead to a decrease of acetylcholine release (Table E).

[2] = test system: pilocarpine-induced sweating, C57BL6/Rcc male mice; assay: Antiperspirant effect, chronic administration, pilocarpine-induced sweating mouse model; assay type: in vivo; conditions: during 4 weeks treatment, 100 μg/paw
Method: This example evaluated chronic effects of peptide of invention SEQ ID NO: 1 pamitoylated form, in an in vivo sweating model. This model was established using pilocarpine, a non-selective agonist of muscarinic receptors, in 11-weeks old C57BL6/Rcc male mice. Test compound was locally administered three times per week for 4 weeks (Treatment). Sweat was induced by intraplantar (i.pl) injection of pilocarpine (3 μg/paw) in the right hind paw (Sweating) once on weeks 1, 2 and 4 according to table H.
Test compound was injected i.pl. on the right hind paw (1, 10 and 100 μg), and vehicle was saline solution.
Sweating was monitored through amylase activity detection on skin surface using iodine/starch reaction. Dark sweating drops were quantified after 5 minutes induction counting number of drops per paw in each condition. Sample n=5-6 individuals per group. Data are expressed as mean #standard error of the mean (SEM). Raw data was normalized as percentage respect to non-injected stimulated individuals (control, 100%). Statistical analysis was one-way ANOVA followed by Dunnett's post-hoc multiple comparison test comparing each condition with the corresponding control group, ****p<0.0001 ***p<0.001 **p<0.01, *p<0.05

[3] = test system: TRPV1-mediated excitability of sensory neurons (neonatal rat dorsal root ganglia); assay: In vitro functional assay for neuronal sensitization (microelectrode array, capsaicin pulses); assay type: cell-based, Wistar rats; conditions: for % Sensitization inhibition: incubated 1 hour, 100 - ratio P3/P1
Method: Isolated neonatal rat dorsal root ganglia from Wistar rats (3-5 days-old) were seeded microelectrode array chips in DMEM Glutamax, 10% FBS, 1% P/S supplemented with murine NGF. All experiments were performed after 48 h cell seeding.
Sensory neurons were sensitized by acute exposure to pro-inflammatory cocktail with bradykinin, histamine and ATP. TRPV1-mediated excitability was analyzed as stinging, burning and itching sensations are mainly driven by TRPV1. Repetitive application of TRPV1-agonist capsaicin (15 s-application 500 nM) allowed first activation (P1) followed by desensitization (second application). Desensitized cultures were sensitized with the cocktail to recover excitability, using external solution between the second (P2) and the third (P3) capsaicin pulse (8 min). To confirm cell viability 40 mM KCl was applied at the end. Test compound was incubated 1 hour before monitoring at 0.1, 1 and 10 µM. Test compound is the peptide having the following sequence (SEQ ID NO: 1): Palm-HYWRELQYR-NH2
Sensitization was calculated as ratio between P3 and P1 capsaicin pulse (ratio P3/P1), representing sensitized response induced by the pro-inflammatory cocktail. Inhibition percentage was calculated as 100-Sensitization. Data are expressed as mean±standard error of the mean (SEM), Statistical analysis was one-way ANOVA followed by Dunnett's post-hoc multiple comparison test comparing each condition with the corresponding sensitization control group, ****p<0.0001 ***p<0.001 **p<0.01, *p<0.05

[4] = test system: pilocarpine-induced sweating, C57BL6/Rcc male mice; conditions: acute, at 10, 30 and 100 μg
Method: Test compound was injected intraplantar (i.pl.) on the right hind paw (10, 30 and 100 μg) 30 min before sweating stimulation. Vehicle was saline solution.
Sweating was monitored through amylase activity detection on skin surface using iodine/starch reaction. Dark sweating drops were quantified after 5 minutes induction counting number of drops per paw in each condition. Sample n=5-6 individuals per group. Data are expressed as mean±standard error of the mean (SEM). Raw data was normalized as percentage respect to non-injected stimulated individuals (Control, 100%) and saline-injected non-stimulated individuals (Vehicle, 0%). Statistical analysis was one-way ANOVA followed by Dunnett's post-hoc multiple comparison test comparing each condition with the corresponding control group, ****p<0.0001 ***p<0.001 **p<0.01, *p<0.05

CCCCCCCCCCCCCCCC(=O)N[C@@H](Cc1c[nH]cn1)C(=O)N[C@@H](Cc1ccc(O)cc1)C(=O)N[C@@H](Cc1c[nH]c2ccccc12)C(=O)N[C@@H](CCCNC(=N)N)C(=O)N[C@@H](CCC(=O)O)C(=O)N[C@@H](CC(C)C)C(=O)N[C@@H](CCC(N)=O)C(=O)N[C@@H](Cc1ccc(O)cc1)C(=O)N[C@@H](CCCNC(=N)N)C(N)=O [SEQ ID NO: 1 palmitoyl, Palm-HYWRELQYR-NH2] (Palmitoyl-HYWRELQYR-NH2)
% Ach release inhibition ([1]; Acetate salt, 0.1 μM): 42.9%
% Ach release inhibition ([1]; Acetate salt, 1 μM): 81.3%
% Ach release inhibition ([1]; Acetate salt, 10 μM): 87.5%
% Ach release inhibition ([1]; TFA salt, 5 μM): 7.9%
% Ach release inhibition ([1]; TFA salt, 10 μM): 49.4%
% Ach release inhibition ([1]; TFA salt, 50 μM): 75.9%
effect on sweating (in words) [2]: significant sweating inhibition
% Sensitization inhibition ([3]; 0.1 μM): 69.7%
% Sensitization inhibition ([3]; 1 μM): 51.2%
% Sensitization inhibition ([3]; 10 μM): 59.7%
effect on sensitization process (in words) ([3]; at the three concentration (0.1, 1 and 10 µM)): significantly inhibited sensitization process with similar efficacy
effect on sweating (in words) [4]: significantly reduced sweating
